For 2 molecules, EC50 and IC50 results are on record in PMC12362587, “Untargeted Diversity-Oriented Synthesis for the Discovery of New Antitumor Agents: An Integrated Approach of Inverse Virtual Screening, Bioinformatics, and Omics for Target Deconvolution” (Journal of Medicinal Chemistry, 2025).

Each structure is given as a SMILES string. “And” between values parts separate entries of the source, which are not always exact repeats. Equal entries are not always repeated. Where only a bound is given, the exact number is not on record here.

Assay [1] relates to HEPG2. The assay can be described thus: MTT cell viability assay. It is filed as cell-based. To be noted: Homo sapiens, 24 h, compounds 0.01–40 μM, read-out: In Vitro Cytotoxicity, EC50 ± SD, HEPG2. The source says: Initially, we phenotypically screened the synthesized compounds over a panel of tumor cell lines composed of HEPG2, A375, SHSY5Y, MCF7, and A549 derived from liver tumor, melanoma, neuroblastoma, breast cancer, and lung adenocarcinoma, respectively. We also considered the HaCaT cell line, coming from keratinocytes, as a healthy control line. As reference, cytotoxic chemotherapeutic agent 5-fluorouracil (5-FU) has been used. The results obtained performing the MTT (3-(4,5-dimethylthiazolyl-2)-2,5-diphenyltetrazolium bromide) assay are summarized in Table .
The human hepatoma HEPG2 cell line was obtained from American Type Culture Collection (ATCC, Rockville, MD, USA). Cells were grown in Eagle’s Minimum Essential Medium (EMEM) supplemented with 10% (v/v) fetal bovine serum (FBS), 2 mM L-glutamine, 1% (v/v) nonessential amino acids, 100 U/mL penicillin, and 0.1 mg/mL streptomycin.
Cell viability was established by measuring mitochondrial metabolic activity with MTT. In brief, HEPG2 (1 × 10^4 cells/well), A375 (2 × 10^3 cells/well), HaCaT (3 × 10^3 cells/well), A549 (3 × 10^3 cells/well), SHSY5Y (2 × 10^4 cells/well), and MCF 7 (5 × 10^3 cells/well) were plated into 96-well plates for 24 h, then the compounds (0.01–40 μM) were added. After 24h, cells were replaced with a fresh medium containing 0.5 mg/mL MTT. Cells were incubated 1–3 h at 37 °C, then the medium was discarded, and formazan blue crystals in the cells were dissolved in 100 μL per well of a solution containing isopropanol/HCl 0.1 M. The absorbance was measured at 570 nm using a microplate reader (Multiskan Go, Thermo Scientific, Waltham, MA, USA). Cell viability was expressed as a percentage relative to the untreated cells cultured in medium with 0.1% DMSO and set to 100%, whereas 10% DMSO was used as positive control and set to 0% of viability. The EC50 values were calculated using GraphPad Prism 8.0 software by nonlinear regression of dose–response inhibition.
In general terms: Tetrazolium assays rely on reduction of a dye to a coloured formazan, in cell work by metabolically active cells.

In assay [2] the target is human CB2R (Homo sapiens, UniProt P34972). The assay can be described thus: Competition binding assay, displacement of [3H]-CP-55,940. Set-up: host or cells: HEK-293 membranes. The note with it: displacement of [3H]-CP-55,940, HEK-293 membranes; read-out: EC50 or IC50, cannabinoid receptor 2. How it is done:
Binding assays at equilibrium were conducted as described in Di Micco et al., 2024. […]. All compounds were evaluated following the manufacturer’s protocol (PerkinElmer distributed by Revvity, Italy). […] The K i values were calculated using the Cheng-Prusoff equation, based on the IC50 values obtained through GraphPad PRISM software (version 10.2.2). The results are expressed as K i (μM), represented as mean ± SEM, and reflect the average of three independent experiments performed in duplicate.
For orientation: In a radioligand displacement assay an active substance lowers the binding of a labelled ligand.

Assay [3] deals with T1, protein-tyrosine kinase 6 (BRK) (Homo sapiens, UniProt Q13882).
T1 construct: purchased BPS Bioscience
The assay can be described thus: BRK kinase assay (BPS Bioscience). It is filed as biochemical. To be noted: top concentration 30 μM, read-out: EC50 or IC50, protein-tyrosine kinase 6. The protocol:
The assay was performed in a volume of 50 μL in a 96-well white plate. […] For activity measurement, the kinase (final concentration, 10 ng per reaction), PTK (Poly-Glu, Tyr 4:1; BRK substrate), ATP (final concentration, 500 μM) and compounds were incubated for 45 min at 30 °C. The compounds were added at different concentrations in the reaction buffer, starting from a final concentration of 30 μM. Buffer with the same amount of DMSO (1%) was used as a negative control. After the incubation time, ADP-Glo Kinase detection reagent was added for 45 min at room temperature. The generated luminescent signal was read in end point mode using a PerkinElmer AlphaScreen multimodal plate reader (PerkinElmer, Waltham, MA, USA). Experiments were performed in triplicate. IC50 values were calculated with GraphPad Prism 8.0 software by nonlinear dose–response inhibition regression.

The target in assay [4] is T2, Thromboxane Synthase (Homo sapiens, UniProt P24557).
T2 construct: Eurofins (contract assay)
Briefly: Enzymatic LeadHunter Assay. It is filed as biochemical. The note with it: Eurofins enzymatic; read-out: EC50 or IC50, Thromboxane Synthase. The source says: (§1) For displacement assays on G-protein coupled receptor 55 (GPR55), Vasopressin V2 receptor (V2R), Adenosine A1 receptor (A1AR), Fibroblast growth factor receptor 1 (FGFR1), Vascular endothelial growth factor receptor 2 (VEGFR2), Platelet-derived growth factor receptor beta (PDGFRB), Vascular endothelial growth factor receptor 1 (VEGFR1), Thromboxane Synthase (TXS) and Phosphodiesterase 10A (PDE10A), we commissioned the Eurofins company which employed its specific experimental methods, accessible at the link: https://www.eurofins.com/.

The target in assay [5] is T3, G-protein coupled receptor 55 (Homo sapiens, UniProt Q9Y2T6).
T3 construct: Eurofins (contract assay)
Briefly: Cell Based Antagonist Arrestin LeadHunter Assay. The note with it: Eurofins, read-out: EC50 or IC50, G-protein coupled receptor 55, antagonist mode.
Source text: as §1

The target in assay [6] is T4, PPARγ-Ligand Binding Domain (human recombinant) (Homo sapiens, UniProt P37231).
T4 construct: purchased Cayman
The assay can be described thus: PPARγ-LBD Ligand Screening Assay Kit (Cayman). To be noted: PPARγ-LBD probe displacement, top concentration 30 μM; read-out: EC50 or IC50, peroxisome proliferator-activated receptor gamma. The protocol:
The assay was performed in a volume of 50 μL in a 96-well plate. In the PPARγ-Ligand Binding Domain screening assay (Cayman, USA), a ligand of Peroxisome proliferator-activated receptor gamma (PPARγ) is conjugated to fluorescein and is used as a displacement probe. To evaluate the binding ability to the target, PPARγ-Ligand Binding Domain (human recombinant), PPARγ Probe – Green and the compounds were incubated in the dark for 1 h at room temperature. The compounds were added at different concentrations in the reaction buffer, starting from a final concentration of 30 μM. Buffer with the same amount of DMSO (1%) was used as a negative control. The fluorescence signals (excitation/emission, 490 nm/520 nm) were read using a PerkinElmer EnSpire multimode plate reader (PerkinElmer, Waltham, MA, USA). The experiments were performed in triplicate. The IC50 values were calculated using GraphPad Prism 8.0 software by nonlinear regression of dose–response inhibition.

Chain of human CB2R (P34972 whole entry): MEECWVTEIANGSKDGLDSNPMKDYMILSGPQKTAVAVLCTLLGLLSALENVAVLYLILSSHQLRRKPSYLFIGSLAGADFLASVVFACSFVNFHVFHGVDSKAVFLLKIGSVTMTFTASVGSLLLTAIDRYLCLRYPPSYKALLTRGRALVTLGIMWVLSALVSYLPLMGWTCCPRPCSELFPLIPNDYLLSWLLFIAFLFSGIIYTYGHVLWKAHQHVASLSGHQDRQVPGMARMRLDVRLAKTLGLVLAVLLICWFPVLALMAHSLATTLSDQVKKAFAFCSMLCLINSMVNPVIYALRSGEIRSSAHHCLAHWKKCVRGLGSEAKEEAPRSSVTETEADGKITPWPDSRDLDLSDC
T1 sequence (Q13882 whole entry): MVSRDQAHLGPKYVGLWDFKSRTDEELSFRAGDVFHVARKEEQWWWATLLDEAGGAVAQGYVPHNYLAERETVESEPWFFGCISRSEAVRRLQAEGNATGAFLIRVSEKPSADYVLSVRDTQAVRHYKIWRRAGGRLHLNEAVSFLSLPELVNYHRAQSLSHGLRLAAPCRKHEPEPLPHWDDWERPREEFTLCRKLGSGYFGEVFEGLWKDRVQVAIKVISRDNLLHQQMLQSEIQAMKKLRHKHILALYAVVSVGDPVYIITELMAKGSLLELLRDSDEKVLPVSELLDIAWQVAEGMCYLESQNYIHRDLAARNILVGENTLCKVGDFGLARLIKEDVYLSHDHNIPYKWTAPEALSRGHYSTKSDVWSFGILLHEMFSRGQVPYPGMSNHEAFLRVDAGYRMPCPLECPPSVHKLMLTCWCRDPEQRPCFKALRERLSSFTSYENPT
T4 sequence (P37231 238-503 limits assumed): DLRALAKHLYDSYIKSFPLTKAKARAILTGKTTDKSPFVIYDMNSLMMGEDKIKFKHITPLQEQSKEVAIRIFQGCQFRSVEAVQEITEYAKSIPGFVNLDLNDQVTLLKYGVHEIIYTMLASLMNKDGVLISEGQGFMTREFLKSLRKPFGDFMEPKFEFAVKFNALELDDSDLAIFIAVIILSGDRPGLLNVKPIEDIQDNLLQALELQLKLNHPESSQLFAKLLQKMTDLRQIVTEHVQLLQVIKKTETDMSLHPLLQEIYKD
T3 sequence (Q9Y2T6 whole entry): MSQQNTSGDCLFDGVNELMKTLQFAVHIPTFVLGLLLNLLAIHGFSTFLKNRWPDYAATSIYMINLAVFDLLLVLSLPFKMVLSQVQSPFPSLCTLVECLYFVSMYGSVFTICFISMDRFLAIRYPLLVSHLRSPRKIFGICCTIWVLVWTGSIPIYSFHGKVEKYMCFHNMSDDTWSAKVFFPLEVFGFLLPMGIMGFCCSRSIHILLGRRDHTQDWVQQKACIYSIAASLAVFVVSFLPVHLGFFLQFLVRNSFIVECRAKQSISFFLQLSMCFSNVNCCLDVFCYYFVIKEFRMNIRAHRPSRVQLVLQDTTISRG
T2 sequence (P24557 whole entry): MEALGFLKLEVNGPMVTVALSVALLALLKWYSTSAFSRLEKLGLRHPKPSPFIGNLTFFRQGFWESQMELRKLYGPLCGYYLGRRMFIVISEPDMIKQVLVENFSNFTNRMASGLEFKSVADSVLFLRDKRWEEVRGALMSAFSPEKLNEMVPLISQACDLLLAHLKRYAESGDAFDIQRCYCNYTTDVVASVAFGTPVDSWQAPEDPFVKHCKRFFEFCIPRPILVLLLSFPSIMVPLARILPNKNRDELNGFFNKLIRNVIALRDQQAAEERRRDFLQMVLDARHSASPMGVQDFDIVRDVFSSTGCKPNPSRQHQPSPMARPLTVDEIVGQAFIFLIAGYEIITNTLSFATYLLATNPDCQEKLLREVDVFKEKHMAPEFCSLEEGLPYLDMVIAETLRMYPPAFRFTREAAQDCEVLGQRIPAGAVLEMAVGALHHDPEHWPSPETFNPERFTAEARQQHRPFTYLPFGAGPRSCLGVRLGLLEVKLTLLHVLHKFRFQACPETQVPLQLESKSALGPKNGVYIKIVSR

Usually EC50 stands for the concentration needed to bring the measured effect to its halfway point. The IC50 is the concentration that inhibits the measured activity by half. Take `CC(C)C[C@H]1C(=O)N(Cc2ccc(C(F)(F)F)cc2)c2ccccc2C(=O)N1Cc1ccc(C(F)(F)F)cc1` [Compound 31, (S)-3-Isobutyl-1,4-bis(4-(trifluoromethyl)benzyl)-3,4-dihydro-1H-benzo[e][1,4]diazepine-2,5-dione]: the EC50 in assay [1] came to 12 ± 3.51 µM. The IC50 is 9.7 ± 0.67 µM in assay [2]; 19 ± 3.04 µM in assay [3]; at least 30 µM in assay [4]; at least 30 µM in assay [5]; above 30 µM in assay [6].
Turning to `CC(C)C[C@@H](C(=O)OCc1ccccc1)N1Cc2ccccc2NC1=O` [Compound 63, Benzyl (S)-4-Methyl-2-(2-oxo-1,4-dihydroquinazolin-3(2H)-yl)pentanoate], the EC50 in assay [1] stood at 2.17 ± 0.96 µM. Besides, the half-maximal inhibitory concentration (IC50) in assay [2] was 6.9 µM and 6.91 µM; in assay [3] it was 29.2 ± 4.53 µM; in assay [4], at least 30 µM; in assay [5], at least 30 µM; in assay [6], above 30 µM.
